Molecules are shown by their SMILES.

For orientation: inhibition means the relative decrease from the control value, in per cent. A high value points to a response far below the control.

Tested on in the first assay: not listed separately
The experiment in a line: Inhibition of AAPH-induced lipid peroxidation. The format is functional. As to conditions: dose or concentration not given here.
Take `COc1cc(/C=C/C(=O)O[C@@H]2CC[C@H](CCCCCCCCCCC(C)=O)N[C@@H]2C)ccc1O`: the inhibition worked out at 50%.
With `CC(=O)CCCCCCCCCCCC[C@H]1CC[C@@H](O)[C@@H](C)N1`, the inhibition was 50%.
The same measure, in the same setting: as for `CC(=O)CCCCCCCCCCCC[C@H]1CC[C@@H](OC(C)=O)[C@@H](C)N1`, the figure is 50%.

Tested on in a further assay: not listed separately
The experiment in a line: DPPH radical scavenging activity assessed as absorption change at 60 ppm by spectrophotometry. The format is functional.
Settings: not given
A general note: Loss of DPPH colour is used to gauge radical scavenging.
Regarding `COc1cc(/C=C/C(=O)O[C@@H]2CC[C@H](CCCCCCCCCCC(C)=O)N[C@@H]2C)ccc1O`, the deltaA is 40%.
The same measure, in the same setting: for `CC(=O)CCCCCCCCCCCC[C@H]1CC[C@@H](O)[C@@H](C)N1` the value was less than 10%; for `C[C@@H]1O[C@@H](OC[C@H]2O[C@@H](Oc3c(-c4ccc(O)c(O)c4)oc4cc(O)cc(O)c4c3=O)[C@H](O)[C@@H](O)[C@@H]2O)[C@H](O)[C@H](O)[C@H]1O`, 92%; for `CC(=O)CCCCCCCCCCCC[C@H]1CC[C@@H](OC(C)=O)[C@@H](C)N1`, less than 10%.

Tested on in the next assay: not listed separately
Nature of the assay: Inhibition of lipid peroxidation at 100 ppm after 21 mins.
Settings: not given
It is filed as functional.
Consider `CC(=O)CCCCCCCCCCCC[C@H]1CC[C@@H](O)[C@@H](C)N1`, for which the inhibition amounted to 75%.
Take `CC(=O)CCCCCCCCCCCC[C@H]1CC[C@@H](OC(C)=O)[C@@H](C)N1`: the inhibition was found to be 75%.

A further assay concerns the target T1, Prostaglandin G/H synthase 1 (Ovis aries) (UniProt P05979).
T1 sequence (whole entry): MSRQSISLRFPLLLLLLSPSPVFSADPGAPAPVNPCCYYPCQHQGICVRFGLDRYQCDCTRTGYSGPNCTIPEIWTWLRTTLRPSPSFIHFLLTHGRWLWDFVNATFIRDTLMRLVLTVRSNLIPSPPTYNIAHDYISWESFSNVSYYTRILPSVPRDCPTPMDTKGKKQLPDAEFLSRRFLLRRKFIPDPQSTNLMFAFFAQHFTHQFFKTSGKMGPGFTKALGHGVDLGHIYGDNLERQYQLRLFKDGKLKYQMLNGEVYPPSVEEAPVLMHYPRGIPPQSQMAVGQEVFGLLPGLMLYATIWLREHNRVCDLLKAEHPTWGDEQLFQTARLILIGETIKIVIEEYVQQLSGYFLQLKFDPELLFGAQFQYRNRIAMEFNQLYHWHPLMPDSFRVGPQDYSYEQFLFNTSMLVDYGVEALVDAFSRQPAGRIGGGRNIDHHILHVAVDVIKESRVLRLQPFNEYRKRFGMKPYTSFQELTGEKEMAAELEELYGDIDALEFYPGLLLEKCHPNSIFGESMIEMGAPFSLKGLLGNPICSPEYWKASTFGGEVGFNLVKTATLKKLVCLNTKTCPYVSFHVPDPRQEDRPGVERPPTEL
The experiment in a line: Inhibition of ram seminal vesicle COX1 at 100 ppm.
Settings: not given
It is filed as tissue-based.
`COc1cc(/C=C/C(=O)O[C@@H]2CC[C@H](CCCCCCCCCCC(C)=O)N[C@@H]2C)ccc1O` showed an inhibition of 33%.
Regarding `CC(=O)CCCCCCCCCCCC[C@H]1CC[C@@H](O)[C@@H](C)N1`, the inhibition came out at 40%.
Consider `CC(=O)CCCCCCCCCCCC[C@H]1CC[C@@H](OC(C)=O)[C@@H](C)N1`, for which the inhibition was 58%.

Values taken from ChEMBL document CHEMBL1141437, “Lipoperoxidation and cyclooxygenase enzyme inhibitory piperidine alkaloids from Cassia spectabilis green fruits” (J Nat Prod, 2007).
